Here are results for four compounds from US6174864A, “Methods for the prevention or treatment of inflammatory bowel diseases” (CCI Corporation, priority 1996, dated 2001).

A short description of one data set: Water-solubility. In kind it is physicochemical. Particulars: ratio to that of Trolox.
For data set [1] the following is noted: cited from earlier work; for water-solubility: prior-art compounds.
Data set [2] has as its system TBA reactive substance (index of the peroxide of lipid), TNB-induced colitis. The data set is described as follows: TBA reactive substance in intestinal mucous membrane of TNB-induced colitis. As to conditions: intraabdominal, daily, one week, normal 0.13, control 0.53. The class given is in vivo, Male Wistar rats. An excerpt:
(§1) The trinitrobenzenesulfonic acid (TNB)-induced colitis is said to resemble the inflammatory bowel disease of man, particularly Crohn's disease. In this model, the myeloperoxidase (MPO) activity, i.e. an index of the humectation of neutrophil into the tissue, prominently increases in the intestinal mucous membrane from the initial stage of the TNB administration onward and thereafter induces full-thickness inflammations inclusive of edama, erosion, and necrosis of the intestinal duct. In this lesion of the mucous membrane, the thiobarbituraic acid (TAB) reaction substance, i.e. an index of the peroxide of lipid, also increases and the antioxidizing substances such as the SOD activity, the glutathionperoxidase (GPx) activity, and α-tocopherol conversely decrease. By the use of this model, the chromanol glucoside was tested for the effect thereof manifested in repressing the lesion of the TNB-induced colitis.
(§2) As the chromanol glucoside, the 2-(α-D-glucopyranosyl) methyl-2,5,7,8-tetramethylchroman-6-ol (TMG) represented by the following formula (3) produced by the method described in Example 1 of JP-A-07-118,287 was thoroughly dissolved in water in varying concentrations of 20 mg/ml, 2 mg/ml, and 0.2 mg/ml to obtain injection grade preparations. [drawing 5]
Male Wistar rats 7 weeks old weighing 190-210 g were divided into groups of six heads. To the rats, after 48 hours' fasting, the TBN dissolved in 50% ethanol in a ratio of 120 mg/ml was intestinally administered at a dose of 1 ml/kg. […]
(§3) Of the items of rating mentioned above, the damage score, the TBA reactive substance, and the MPO activity were measured by the following methods.
The determination was performed in accordance with the method proposed by Ohkawa et al. (H. Ohkawa, et al.: Anal. Biochem., 95 (1979) 351-358). […] The supernatant resulting from the centrifugation was measured for absorbance at a wavelength of 535 nm with a spectrophotometer. […] Based on this calibration curve, the TBA reactive substance of a sample was determined.

For another data set, the system named is TNB-induced colitis. The data set is described as follows: Effect of repressing lesion in TNB-induced colitis (body weight increase, damage score, wet weight of intestine). The class given is in vivo, Male Wistar rats. As to conditions: intraabdominal, daily, one week; for Wet weight: intestine, normal 0.58, control 2.6; for Damage score: lesion 0-5 plus adhesion 0-3, normal 0, control 7.25; for Amount of increase in body weight: normal group 93.5, control group 17.5.
Text: as §1, §2
Male Wistar rats 7 weeks old weighing 190-210 g were divided into groups of six heads. To the rats, after 48 hours' fasting, the TBN dissolved in 50% ethanol in a ratio of 120 mg/ml was intestinally administered at a dose of 1 ml/kg. Thereafter, the TMG preparations obtained as described above were administered to the rats intraabdominally at a dose of […] per head daily. After one week of the administration, the rats were rated for increase of body weight, damage score of the intestine in a 8 cm region on the side of the anus, wet weight, TBA reactive substance, and MPO activity.
as §3
The lesion on the intestinal mucous membrane was classified on the six-point (0-5) scale in accordance with the Morris Classification (G. P. Morris, et al.,: Gastoenterology, 96 (1989) 750-803) and the degree of adhesion to the intestinal mucous membrane was classified on the four-point (0-3) scale (0: absence of adhesion, 1: presence of incontinuous adhesion, 2: presence of continuous adhesion, and 3: presence of clots). The sums of these points were used for rating.

In data set [3] the test system is myeloperoxidase (MPO), TNB-induced colitis. The data set is described as follows: MPO activity in intestinal mucous membrane of TNB-induced colitis. As to conditions: intraabdominal, daily, one week, normal 0.19, control 0.74. The class given is in vivo, Male Wistar rats.
Text: as §1, §2
Male Wistar rats 7 weeks old weighing 190-210 g were divided into groups of six heads. […]
as §3
The determination was carried out in accordance with the o-dianisidine-hydrogen peroxide reaction (J. E. Krrawisz, et al.,: Gastroenterology, 87 (1984) 1344-135). […] In 950 μl of a reaction solution prepared by dissolving 16.7 mg of o-dianidine dihydrochloride in 50 mM of potassium phosphate having a pH of 6.0 and further mixing the resulting solution with 100 μl of an aqueous 0.5% hydrogen peroxide solution, 50 μl of the sample was placed and measured for change in absorbance at a wavelength of 460 nm with a spectrophotometer. […]

A further data set has as its system ICR type mice. The data set can be described thus: Test for acute toxicity. The class given is in vivo. Particulars: oral, 500 mg/kg in 5% gum arabic solution, one week observation. On the procedure: The preventive and curative agent of this invention for inflammatory bowel diseases was tested for acute toxicity in an effort to confirm the safety thereof. ICR type mice 4-5 weeks old were divided into groups of three heads. The same TMG as mentioned above was suspended as a chromanol glucoside in 5% gum arabic solution. The resultant suspension was orally administered to the rats in a dosage of 500 mg/kg as reduced to TMG, with the rats kept under observation for one week. In this case, 0.3 ml of a 5% gum arabic solution was administered to a control group.

As for `Cc1c(C)c2c(c(C)c1O)CCC(C)(CO)O2` (centres unmarked) [TMC-2-substituted methanol, 2-hydroxymethyl-2,5,7,8-tetramethylchroman-6-ol], in the data set “Water-solubility”, the “water-solubility relative to Trolox” value is reported as “about 6.3 times”. For the same compound, the water-solubility entry in data set [1] was “about 100 mg/100 ml”.

Consider `Cc1c(C)c2c(c(C)c1O)CCC(C)(C(=O)O)O2` (centres unmarked) [Trolox, 6-hydroxy-2,5,7,8-tetramethylchroman-2-carboxylic acid], for which, in data set [1], the water-solubility result is given as “about 15 mg/100 ml”.

As for `Cc1c(C)c2c(c(C)c1O)CCC(C)(CCCC(C)CCCC(C)CCCC(C)C)O2` (stereo not drawn) [vitamin E, α-tocopherol], in data set [1] (prior-art compound), the “water-solubility (in words)” value was “not soluble in water”.

For the compound `Cc1c(C)c2c(c(C)c1O)CCC(C)(CO[C@H]1O[C@H](CO)[C@@H](O)[C@H](O)[C@H]1O)O2` (some centres unmarked) [TMG], the TAB reactive substance in data set [2] (TMG 0.2 mg/ml) was 0.31 ng/mg protein; in data set [2] (TMG 2 mg/ml), 0.38 ng/mg protein; in data set [2] (TMG 20 mg/ml), 0.35 ng/mg protein. The Wet weight amounted to 1.06 g/8 cm in the data set on TNB-induced colitis (TMG 0.2 mg/ml), 1.15 g/8 cm in the data set on TNB-induced colitis (TMG 2 mg/ml) and 0.86 g/8 cm in the data set on TNB-induced colitis (TMG 20 mg/ml). The Damage score in the data set on TNB-induced colitis (TMG 0.2 mg/ml) was determined as 4.75; with TNB-induced colitis (TMG 2 mg/ml) it was 3.75; with TNB-induced colitis (TMG 20 mg/ml) it was 4. The “Amount of increase in body weight” value with TNB-induced colitis (TMG 0.2 mg/ml) was 63 g/one week; with TNB-induced colitis (TMG 2 mg/ml), 64 g/one week; in the data set on TNB-induced colitis (TMG 20 mg/ml), 57 g/one week. Further, the results for the MPO activity in data set [3] (TMG 0.2 mg/ml), in data set [3] (TMG 2 mg/ml) and in data set [3] (TMG 20 mg/ml) were 0.52 U/l/mg protein, 0.64 U/l/mg protein and 0.48 U/l/mg protein, respectively. Also, the “death of mouse in acute toxicity test” value with ICR type mice is “No case of death”.
